The values that follow come from patent US20260224678A1, “EXPEDITED NEOANTIGEN VACCINES” (priority 2023, published 2026).

The assay has as its system T cells. As to the kind of experiment: Elispot response after vaccination with neoepitope peptides. In kind it is cell-based, human. The settings on record: subject with R132H mutation of IDH1 vaccinated multiple times with two 9 mer peptides and a 15 mer peptide carrying the motifs. The text has this:
As noted above, T cell exposed motif frequency is also a criterion for selection of vaccinal peptides from mutated passenger gene products. Table 10—(also replicated as FIG. 5) provides an example for a particular individual cancer-affected subject showing the selection of the most advantageous peptides based on frequency of occurrence in reference databases of pentamer counts and the subject's HLA alleles. When the pentamers in tumor specific T cell exposed motifs that expose a mutated amino acid are absent or low frequency in the human proteome, particular attention is paid to the frequency count in databases of exogenous proteins. In the table we show application of the representative gastrointestinal microbiome dataset. Application of this database should not be considered limiting and other reference sets likely to be indicative of prior epitope exposure may be applied. In this example the top two passenger mutations (in genes ARHGAP5 and ATIC) have T cell exposed motifs which are common. However, the lower two mutations (in CDC42 and CHD6) are poorly represented in the human and gastrointestinal microbiome reference datasets. Selected peptides for these two mutated proteins (margins boxed in FIG. 5) that best fulfil the criteria of frequency and also binding to this subject's known HLA alleles include SEQ ID NO.:s. 1891, 1897, 1898, 1914, 1915, 1916, 1921. In another embodiment a subject affected with a R132H mutation of IDH1 was vaccinated multiple times with two 9 mer peptides both exposing the mutant histidine. One peptide carried T cell exposed motif ~~~IGHHA~ (SEQ ID NO.: 1924) and the other carrying ~~~GHHAY~ SEQ ID NO.: 1925 and a 15 mer peptide comprising KP~I~GH SEQ ID NO.: 1927. A positive Elispot response was detected to SEQ ID NO.: 1924 and 1927 but not SEQ ID NO.: 1925.
Methods of expansion of T cells and sequencing of the T cell receptors (TCR) therein are known to the art. […]
As for 1924 (IGHHA) [compound 1924], the Elispot entry is listed as “positive”.

With 1925 (GHHAY) [compound 1925], the Elispot entry is “negative”.

Regarding 1927 (KPIGH) [compound 1927], the Elispot result is listed as “positive”.
